Assay [1] concerns A2780 ovarian cancer cells. The assay can be described thus: Cellular proliferation, Cell Titer Glo (Biological Method 4). The format is cell-based. As to conditions: Homo sapiens, ovarian cancer cell line A2780. Here is the method:
In addition, many of the compounds of Table 1 were tested to determine their inhibitory activity in a cellular proliferation assay according to Biological Method 4.
The ability of the compounds of the invention to inhibit cellular proliferation were determined by using Cell Titer Glo, a commercially available assay from Promega Corporation. A2780 ovarian cancer cells were seeded in TC treated 96-well plates at a density of 1,000 per well in DMEM, 10% FBS, 1% Sodium Pyruvate, and 1% Penicillin Streptomycin for a minimum of 2 hrs prior to addition of compound. For each concentration of test compound, 2 μl (500×) aliquots of compound or 100% DMSO diluted in 500 μl of culture medium for 2× concentration then diluted 1× on the Cells. Cells were incubated for 72 hrs at 37° C., 5% CO2. After the 72 hour incubation, Cell Titer Glo reagent is added to determine number of viable cells remaining after exposure to the compound, and the EC50 value was calculated. The assay was performed according to the manufacturer's instruction (Promega Corporation, Madison, Wis. USA). Each experimental condition was performed in duplicate.
Background: ATP-based viability assays read luminescence as a measure of living cells.

For assay [2], the target named is PI3 kinase alpha (Homo sapiens, UniProt P42336). Description: PI3K ATP depletion assay (Biological Method 1, Assay 3). The format is biochemical. Here is the method: Assay 3: ATP Depletion Assay
Compounds to be tested are dissolved in DMSO and directly distributed into a black 384-well plate at 1.25 μL per well. To start the reaction, 25 μL of 10 nM PI3 kinase and 5 μg/mL 1-alpha-phosphatidylinositol (PI) are added into each well followed by 25 μL of 2 μM ATP. The reaction is performed until approx 50% of the ATP is depleted, and then stopped by the addition of 25 μL of KinaseGlo solution purchased from Promega. The stopped reaction is incubated for 5 minutes and the remaining ATP is then detected via luminescence.

Assay [3] concerns pSer473 Akt. The assay can be described thus: pSer473 Akt assay to monitor PI3K pathway in A2780 cells (Biological Method 2). The format is cell-based. The conditions noted are these: Homo sapiens, inhibition of Akt phosphorylation. On the procedure: In this method, an assay for measuring the PI3K-mediated pSer473-Akt status after treatment with representative inhibitor compounds of the invention is described.
A2780 cells were cultured in DMEM supplemented with 10% FBS. L-glutamine, sodium pyruvate, and antibiotics. Cells were plated in the same medium at a density of 15,000 cells per well into 96 well tissue culture plates, with outside wells vacant, and allowed to adhere overnight.
Test compounds supplied in DMSO were diluted further into DMSO at 500 times the desired final concentrations before dilution into culture media to 2 times the final concentrations. Equal volumes of 2× compounds were added to the cells in 96 well plates and incubated at 37° C. for one hour. The media and compounds were then removed, the plates chilled and cells lysed in a lysis buffer (150 mM NaCl, 20 mM Tris pH 7.5, 1 mM EDTA, 1 mM EGTA, 1% Triton X-100) supplemented with phosphatase and protease inhibitors. After thorough mixing, lysates were transferred to both pSer473Akt and total Akt assay plates from Meso Scale Discovery (MSD), and incubated overnight with shaking at 4° C.
The assays were read on a SECTOR Imager 6000 instrument (Meso Scale Discovery). Ratios of the signal from pSer473Akt and total Akt assays were used to correct for any variability and the percent inhibition of pSer473Akt from the total signal seen in cells treated with compound versus DMSO alone was calculated and used to determine EC50 values for each compound.

Structures are written as SMILES. Read-outs that look alike come from different tables or passages of the source.

Sequence of PI3 kinase alpha (P42336 whole entry): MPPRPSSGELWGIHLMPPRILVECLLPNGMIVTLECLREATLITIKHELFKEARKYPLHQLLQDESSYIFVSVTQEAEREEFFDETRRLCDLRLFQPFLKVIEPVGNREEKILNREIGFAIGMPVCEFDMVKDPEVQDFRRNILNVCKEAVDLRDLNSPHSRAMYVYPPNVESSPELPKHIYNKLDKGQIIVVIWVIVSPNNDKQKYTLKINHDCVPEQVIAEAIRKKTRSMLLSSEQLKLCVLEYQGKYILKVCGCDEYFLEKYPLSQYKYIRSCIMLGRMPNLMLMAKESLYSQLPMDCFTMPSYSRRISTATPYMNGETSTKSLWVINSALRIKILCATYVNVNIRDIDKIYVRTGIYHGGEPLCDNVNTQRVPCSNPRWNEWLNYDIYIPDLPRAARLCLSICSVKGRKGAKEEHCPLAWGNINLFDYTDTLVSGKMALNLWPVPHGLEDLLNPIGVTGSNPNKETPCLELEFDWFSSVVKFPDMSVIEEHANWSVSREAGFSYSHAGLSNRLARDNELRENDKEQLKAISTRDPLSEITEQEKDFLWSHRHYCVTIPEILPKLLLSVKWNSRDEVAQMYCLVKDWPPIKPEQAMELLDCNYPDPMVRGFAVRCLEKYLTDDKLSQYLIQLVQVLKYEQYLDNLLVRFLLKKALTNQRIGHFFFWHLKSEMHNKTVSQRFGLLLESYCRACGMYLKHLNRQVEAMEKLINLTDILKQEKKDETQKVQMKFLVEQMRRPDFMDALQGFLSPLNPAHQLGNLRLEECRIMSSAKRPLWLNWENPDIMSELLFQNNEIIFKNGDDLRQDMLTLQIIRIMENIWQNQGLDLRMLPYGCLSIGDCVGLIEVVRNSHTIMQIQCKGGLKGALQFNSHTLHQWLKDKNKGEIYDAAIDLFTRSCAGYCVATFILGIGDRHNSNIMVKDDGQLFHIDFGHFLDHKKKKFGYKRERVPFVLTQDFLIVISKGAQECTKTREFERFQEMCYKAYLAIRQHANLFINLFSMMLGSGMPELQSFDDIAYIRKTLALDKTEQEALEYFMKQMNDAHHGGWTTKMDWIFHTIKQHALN
Sequence of PI3 kinase alpha (P27986 whole entry partner): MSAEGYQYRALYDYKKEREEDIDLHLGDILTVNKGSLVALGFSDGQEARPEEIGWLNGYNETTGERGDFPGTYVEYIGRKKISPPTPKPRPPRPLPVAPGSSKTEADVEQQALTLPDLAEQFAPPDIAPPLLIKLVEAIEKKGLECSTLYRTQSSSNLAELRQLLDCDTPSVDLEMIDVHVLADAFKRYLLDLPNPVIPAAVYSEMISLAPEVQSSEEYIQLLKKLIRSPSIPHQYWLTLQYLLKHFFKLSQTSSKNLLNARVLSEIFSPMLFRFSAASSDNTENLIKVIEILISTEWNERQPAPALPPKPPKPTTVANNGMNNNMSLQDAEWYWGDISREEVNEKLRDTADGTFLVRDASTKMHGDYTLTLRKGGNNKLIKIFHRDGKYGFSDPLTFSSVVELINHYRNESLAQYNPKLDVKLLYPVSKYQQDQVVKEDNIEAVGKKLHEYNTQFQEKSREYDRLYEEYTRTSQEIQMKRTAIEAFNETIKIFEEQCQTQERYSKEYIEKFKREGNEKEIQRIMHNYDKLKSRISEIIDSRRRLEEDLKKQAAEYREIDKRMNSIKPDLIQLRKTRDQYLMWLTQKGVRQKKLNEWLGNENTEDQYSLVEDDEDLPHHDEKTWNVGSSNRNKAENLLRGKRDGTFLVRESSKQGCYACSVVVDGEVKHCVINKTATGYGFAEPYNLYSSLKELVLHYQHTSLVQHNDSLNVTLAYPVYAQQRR

`Nc1ncc(-c2cc(-c3cncc(O)c3)nc(N3CCOCC3)n2)cn1` [Compound 274] displayed an EC50 in assay [1] below 10 µM. Consider `Nc1ccc(-c2cc(Nc3cnc4ccc(OC(F)(F)F)cc4c3)nc(N3CCOCC3)n2)cn1` [Compound 496], for which the 50% inhibitory concentration (IC50) in assay [2] (Table 1, Biological Method 1) was below 10 µM. For `Nc1ncc(-c2cc(OC3CCN(C(=O)OCc4ccccc4)CC3)nc(N3CCOCC3)n2)c(N)n1` [Compound 146], the 50% effective concentration (EC50) in assay [3] and in assay [1] was below 1 µM in each case. The half-maximal inhibitory concentration (IC50) in assay [2] is below 1 µM. In the case of `Nc1ccc(-c2cc(-c3cc4ccccc4nc3NCCN3CCCC3)nc(N3CCOCC3)n2)cn1` [Compound 182], the concentration for a half-maximal effect (EC50) in assay [3] and in assay [1] was below 1 µM in each case. In assay [2], the half-maximal inhibitory concentration (IC50) is below 1 µM. On to `CC(C)(C)OC(=O)N1CCC[C@H](Oc2cc(-c3cnc(N)cc3C(F)(F)F)nc(N3CCOCC3)n2)C1` [Compound 20], for which the EC50 in assay [1] was below 10 µM. Turning to `CN(C)C(=O)c1cnc(N2CCOCC2)nc1-c1cnc(N)nc1` [Compound 422], the half-inhibitory concentration (IC50) in assay [2] (Table 1, Biological Method 1) was below 10 µM. For `COc1ccc(Nc2cc(-c3cnc(N)nc3C(F)(F)F)nc(N3CCOCC3)n2)cn1` [Compound 151], the EC50 in assay [3] is below 1 µM; in assay [1], below 10 µM. In addition, the 50% inhibitory concentration (IC50) in assay [2] was below 1 µM. With `CCN(CC)CCc1csc(Nc2cc(-c3cnc(N)nc3C(F)(F)F)nc(N3CCOCC3)n2)n1` [Compound 55], the EC50 in assay [3] and in assay [1] was below 1 µM in each case. For the same compound, the IC50 in assay [2] is below 1 µM.

In the case of `Nc1ccc(-c2cc(NCc3ccncc3)nc(N3CCOCC3)n2)cn1` [Compound 443], in assay [2] (Table 1, Biological Method 1), the IC50 is below 10 µM. Regarding `N#Cc1cnc(Nc2cc(-c3cnc(N)nc3C(F)(F)F)nc(N3CCOCC3)n2)s1` [Compound 545], in assay [2] (Table 1, Biological Method 1), the IC50 was below 1 µM. In turn, `CC(=O)N1CCC[C@@H](Oc2cc(-c3cnc(N)nc3N)nc(N3CCOCC3)n2)C1` [Compound 29] came in with an EC50 in assay [1] below 10 µM. In assay [2] (Table 1, Biological Method 1), `CS(=O)(=O)Nc1cc(N)ncc1-c1cc(Nc2cnc3ccccc3c2)nc(N2CCOCC2)n1` [Compound 492] returned an IC50 below 10 µM. Compound `COc1ccc2cc(Nc3cc(-c4ccc(N)nc4)nc(N4CCOCC4)n3)cnc2c1` [Compound 494] had a concentration giving a half-maximal response (EC50) in assay [1] (Biological Method 4) below 10 µM. On to `CS(=O)(=O)Nc1ccc(-c2cc(-c3ccc(N)nc3)nc(N3CCOCC3)n2)cn1` [Compound 503], for which, in assay [1] (Biological Method 4), the half-maximal effective concentration (EC50) was below 10 µM. Moreover, in assay [2] (Table 1, Biological Method 1), the IC50 is below 1 µM.

As for `Nc1ccc(-c2cc(NCc3ccccn3)nc(N3CCOCC3)n2)cn1` [Compound 444], in assay [2] (Table 1, Biological Method 1), the half-maximal inhibitory concentration (IC50) is below 10 µM. Take `Nc1ncc(-c2cc(-c3ccc(F)nc3)nc(N3CCOCC3)n2)cn1` [Compound 278]: the concentration giving a half-maximal response (EC50) in assay [1] is below 1 µM. In the case of `CN(C)CCOc1cncc(-c2cc(-c3cnc(N)cc3C(F)(F)F)nc(N3CCOCC3)n2)c1` [Compound 203], the EC50 in assay [3] is below 1 µM; in assay [1] it was below 10 µM. Moreover, in assay [2], the IC50 is below 1 µM.

`Nc1ccc(-c2cc(NCc3cccnc3)nc(N3CCOCC3)n2)cn1` [Compound 445]: the IC50 in assay [2] (Table 1, Biological Method 1) was below 10 µM. For the compound `N#Cc1cccnc1Nc1cc(-c2ccc(N)nc2)nc(N2CCOCC2)n1` [Compound 364], in assay [1], the EC50 is below 25 µM. Also, the 50% inhibitory concentration (IC50) in assay [2] was below 10 µM. Compound `Cc1c(Nc2nc(-c3ccccc3)cs2)nc(N2CCOCC2)nc1-c1cnc(N)cc1C(F)(F)F` [Compound 555] registered a half-maximal inhibitory concentration (IC50) in assay [2] (Table 1, Biological Method 1) below 10 µM. Consider `Nc1cc(C(F)(F)F)c(-c2cc(N3CCCCC3=O)nc(N3CCOCC3)n2)cn1` [Compound 17], for which the EC50 in assay [1] is below 10 µM. For `Cn1c(Nc2cc(-c3cnc(N)nc3)nc(N3CCOCC3)n2)nc2ccccc21` [Compound 394], in assay [1], the half-maximal effective concentration (EC50) was below 10 µM. This compound registered an IC50 in assay [2] below 1 µM. As to `Cc1c(Nc2ncc(-c3ccccc3)s2)nc(N2CCOCC2)nc1-c1cnc(N)nc1` [Compound 61], the half-maximal effective concentration (EC50) in assay [3] and in assay [1] was below 1 µM each time. For the same compound, the IC50 in assay [2] is below 1 µM. `CC(=O)N1CCC(Oc2cc(-c3cnc(N)cc3C(F)(F)F)nc(N3CCOCC3)n2)CC1` [Compound 19] yielded a 50% effective concentration (EC50) in assay [1] below 10 µM. `COc1cncc(-c2cc(-c3ccc(N)nc3)nc(N3CCOCC3)n2)c1` [Compound 275] returned an EC50 in assay [1] below 10 µM.

Consider `Nc1ncc(-c2cc(OC3CCN(C(=O)OC4CCCC4)CC3)nc(N3CCOCC3)n2)c(N)n1` [Compound 97], for which the half-maximal effective concentration (EC50) in assay [1] is below 10 µM. Same read-out and setting: the value for `Nc1cc(Cl)c(-c2cc(OC3CCOCC3)nc(N3CCOCC3)n2)cn1` [Compound 328] was below 10 µM. On to `Nc1cc(C(F)(F)F)c(-c2cc(-c3cccnc3NCCO)nc(N3CCOCC3)n2)cn1` [Compound 285], for which the EC50 in assay [1] is below 10 µM. For the same compound, the IC50 in assay [2] is below 1 µM.

In turn, `COCCNc1cc(-c2cnc(N)nc2)nc(N2CCOCC2)n1` [Compound 14] yielded a 50% effective concentration (EC50) in assay [1] below 10 µM. For `CS(=O)(=O)N1CCC[C@H](Oc2cc(-c3cnc(N)nc3N)nc(N3CCOCC3)n2)C1` [Compound 89], the concentration for a half-maximal effect (EC50) in assay [3] and in assay [1] was below 1 µM each time. The compound further showed an IC50 in assay [2] below 1 µM. Compound `Nc1ncc(-c2cc(N[C@H]3CCC[C@@H]3OCc3ccccc3)nc(N3CCOCC3)n2)cn1` [Compound 396] yielded a concentration for a half-maximal effect (EC50) in assay [1] below 10 µM. Further, the half-inhibitory concentration (IC50) in assay [2] is below 1 µM. Regarding `CC(=O)Nc1ncc(-c2cc(-c3cnc(N)cc3C(F)(F)F)nc(N3CCOCC3)n2)s1` [Compound 126], the concentration for a half-maximal effect (EC50) in assay [3] was below 1 µM; in assay [1], below 10 µM. In addition, the half-maximal inhibitory concentration (IC50) in assay [2] was below 1 µM. On to `CCN(CC)CCc1csc(Nc2cc(-c3cnc(N)cc3C(F)(F)F)nc(N3CCOCC3)n2)n1` [Compound 13], for which, in assay [1], the half-maximal effective concentration (EC50) is below 10 µM. On the same count and under the same terms, then `CC(C)(C)Nc1cc(-c2cnc(N)nc2)nc(N2CCOCC2)n1` [Compound 16], with below 10 µM; and `CS(=O)(=O)c1cccc(-c2cc(-c3cnc(N)cc3C#N)nc(N3CCOCC3)n2)c1` [Compound 92], with below 10 µM; and `Nc1cc(C(F)(F)F)c(-c2cc(N3CCN(c4ccccc4)C3=O)nc(N3CCOCC3)n2)cn1` [Compound 18], with below 10 µM. In assay [1] (Biological Method 4), `Nc1ccc(-c2cc(-c3ccc(N4CCN(CCO)CC4)nc3)nc(N3CCOCC3)n2)cn1` [Compound 499] yielded an EC50 below 10 µM. In addition, the half-inhibitory concentration (IC50) in assay [2] (Table 1, Biological Method 1) was below 1 µM. `CC(=O)N1CCC(Oc2cc(-c3cnc(N)nc3N)nc(N3CCOCC3)n2)CC1` [Compound 99] displayed a concentration giving a half-maximal response (EC50) in assay [1] below 10 µM. In assay [1], `CC(C)N1CCC(Oc2ccc(Nc3cc(-c4cnc(N)cc4C(F)(F)F)nc(N4CCOCC4)n3)cn2)C1` (centres unmarked) [Compound 93] displayed a 50% effective concentration (EC50) below 10 µM. As to `Nc1ncc(-c2cc(Nc3ccnc4c(C(F)(F)F)cccc34)nc(N3CCOCC3)n2)cn1` [Compound 408], the EC50 in assay [1] (Biological Method 4) was below 10 µM. The compound also displayed an IC50 in assay [2] (Table 1, Biological Method 1) below 1 µM. For `Nc1ncc(-c2cc(-c3cnc(N)nc3)nc(N3CCOCC3)n2)cn1` [Compound 279], the concentration giving a half-maximal response (EC50) in assay [1] is below 1 µM. For the compound `CS(=O)(=O)c1cccc(-c2cc(-c3cnc(N)cc3C(F)(F)F)nc(N3CCOCC3)n2)c1` [Compound 95], the half-maximal effective concentration (EC50) in assay [1] was below 10 µM. Take `CCN(CC)CCc1csc(Nc2cc(-c3cnc(N)nc3N)nc(N3CCOCC3)n2)n1` [Compound 133]: the EC50 in assay [3] and in assay [1] was below 1 µM in each case. This compound also had an IC50 in assay [2] below 1 µM.

Broadly, the EC50 is the concentration needed to bring the measured effect to its halfway point. The low end stands for a more potent agent, the high end for a less potent agent. The IC50 is the point on the concentration scale where inhibition reaches its midpoint.

Source of the values: US8563549B2, “Pyrimidine derivatives used as PI-3 kinase inhibitors” (Novartis AG, priority 2006, dated 2013).
